Laboratory results from ChEMBL document CHEMBL6115046, “Synthesis and In Vitro Profiling of Psilocin Derivatives: Improved Stability and Synthetic Properties” (J Med Chem, 2025).

What was measured:
[1] = Metabolic stability in human liver microsomes assessed as degradation at 1 uM measured upto 45 mins in presence of NADPH measured per mg protein by LC-MS/MS analysis; format: ADME, Microsome; details: 0.75 h
[2] = Photolytic stability of the compound assessed as parent compound remaining incubated under 12900 lx light irradiation measured for 14 days by LC-MS analysis; format: physicochemical; details: time 14 day
[3] = Photolytic stability of the compound assessed as half life under 12900 lx light irradiation measured for 14 days by LC-MS analysis; format: physicochemical; details: time 14 day
[4] = Thermal stability of the compound assessed as parent compound remaining at 60 degreeC measured for 6 days by LC-MS analysis; format: physicochemical; details: time 6 day
[5] = Chemical stability of the compound in 1M HCl assessed as half life measured for 24 hrs by LC-MS analysis; format: physicochemical
[6] = Stability of the compound in 0.30% H2O2 assessed as parent compound remaining measured after 24 hrs by LC-MS analysis; format: physicochemical; details: read-out: Stability
[7] = Stability of the compound in 0.1M NaOH assessed as parent compound remaining measured after 24 hrs by LC-MS analysis; format: physicochemical; details: read-out: Stability
[8] = Stability of the compound in 1M HCl assessed as parent compound remaining measured for 24 hrs by LC-MS analysis; format: physicochemical; details: buffer
[9] = Thermal stability of compound assessed as half life at 60 degreeC measured for 6 days by LC-MS analysis; format: physicochemical; details: 144 h; time 6 day
[10] = Stability of the compound in 0.1M NaOH assessed as half life measured after 24 hrs by LC-MS analysis; format: physicochemical
[11] = Stability of the compound in 0.30% H2O2 assessed as half life measured after 24 hrs by LC-MS analysis; format: physicochemical

With `CN(C)CCc1c[nH]c2cccc(OC(=O)N3CCCCC3)c12.O=C(O)/C=C/C(=O)O` the Drug degradation [1] was less than 10 µL/min.

In the case of `CN(C)CCc1c[nH]c2cccc(OS(=O)(=O)O)c12`, the Drug degradation [1] is reported as greater than 200 µL/min.

In the case of `CN(C)CCc1c[nH]c2cccc(OC(=O)OCc3ccccc3)c12.O=C(O)/C=C/C(=O)O.O=CO`, the Drug degradation [1] is reported as greater than 200 µL/min.

With `CCCCC(=O)Oc1cccc2[nH]cc(CCN(C)C)c12.O=C(O)/C=C/C(=O)O` the Drug degradation [1] was greater than 200 µL/min.

Work on `CN(C)CCc1c[nH]c2cccc(OCc3ccccc3)c12` yielded a Drug degradation [1] of 44 µL/min.

In the case of `COC(=O)Oc1cccc2[nH]cc(CCN(C)C)c12.O=C(O)/C=C/C(=O)O`, the Drug degradation [1] is reported as greater than 200 µL/min.

Work on `CN(C)CCc1c[nH]c2cccc(O)c12.OB(O)O` yielded a remaining at 336 h ([2]; read-out: Stability) of 0%, a half-life [3] of less than 16.7 h and a remaining at 144 h ([4]; read-out: Stability) of 0%. The half-life ([5]; 1M HCl) was greater than 167 h, the remaining at 24 h [6] was 0% and the remaining at 24 h [7] was 0%.

For `CC(C)COC(=O)Oc1cccc2[nH]cc(CCN(C)C)c12.O=CO`, the Drug degradation [1] was greater than 200 µL/min.

`CCCC(=O)Oc1cccc2[nH]cc(CCN(C)C)c12.O=C(O)/C=C/C(=O)O` showed a Drug degradation [1] greater than 200 µL/min.

For `CN(C)CCc1c[nH]c2cccc(OB(O)O)c12.O=C(O)/C=C/C(=O)O`, the Drug degradation [1] was greater than 200 µL/min.

Molecule `CN(C)CCc1c[nH]c2cccc(OP(=O)(O)O)c12` [PSILOCYBIN] has a Drug degradation [1] of less than 10 µL/min.

Work on `CN(C)CCc1c[nH]c2cccc(O)c12.O=C1O[C@H]([C@@H](O)CO)C(O)=C1O` yielded a Stability ([2]; 336 h) of 39%, a Stability [8] of 97% and a t1/2 [9] of 150 h. The t1/2 [10] was 16.67 h, the Stability ([4]; 144 h) was 42% and the t1/2 ([5]; buffer, 24 h) was greater than 166.67 h. It also gave a t1/2 [11] greater than 166.67 h.
